The compound `CC1(c2ccccc2)OCC(=O)N(CCCN2C(=O)c3ccccc3C2=O)c2ccc(Cl)cc21` (configuration not stated) showed a melting point of 151 to 153 °C. With `CC(C)c1cccc(C(C)C)c1NC(=O)CNC(c1ccccc1)c1cccc2ccccc12` (configuration not stated) the figure was 149 to 151 °C; with `COc1ccc(C(=O)Nc2c(Cl)cncc2Cl)c2c1oc1ccc(NCC(=O)O)cc12`, > 260 °C.

`FC(F)(F)c1cc(NCc2ccsc2)cc(C(F)(F)F)c1Br` showed a melting point of 78 to 79 °C. As for `C(=Cc1ccccc1)COc1ccc2c(c1)OCO2`, the figure is 83 °C; as for `Cc1nnc(C(=O)CCCCCCOc2ccccc2)o1`, 75 to 77 °C. With `BrCc1ccc2ocnc2c1` the figure was 90 to 93 °C; with `FC(F)(F)Oc1ccc(-c2ncc(Br)cn2)cc1`, 107 to 108 °C; with `CCCCCCCCCCNC(=O)C1CSC(c2cccnc2)N1` (configuration not stated), 88 °C. For `CCOc1cccc(CNC(=O)[C@H]2N(C(=O)[C@@H](O)[C@H](Cc3ccccc3)NC(=O)c3cccc(O)c3C)CSC2(C)C)c1`, the melting point is 105 to 107 °C.

For the compound `COc1ccc(-c2ccncc2)cc1-c1ccc2nonc2c1`, the melting point lay within 187 to 192 °C. With `COc1ccc(N(CCCC(=O)O)C(=O)CCCN(C(=O)c2ccc(Cl)cc2)c2c(C)cccc2C)cc1`, the melting point lay within 119 to 121 °C. As for `COc1cccc([C@H]2O[C@H](CC(=O)N[C@H](C)C(=O)OC(C)(C)C)C(=O)N(CC(C)(C)C)c3ccc(Cl)cc32)c1OC`, the figure is 127 to 128 °C; as for `Cc1ccc(C(=O)NCC2CCN(C[C@H]3COc4ccc(Cl)cc4O3)CC2)c(N)n1`, 160 to 163 °C. As to `CC(=O)Nc1ccc(CCCOCCCCCCNCC(O)c2cc(Cl)c(N)c(Cl)c2)nc1` (configuration not stated), the melting point is 66 to 67 °C. With `CCC(=O)c1cc(C2(c3cccc(NC(=O)COC)c3)N=C(N)N(C)C2=O)cn1CC` (configuration not stated) the figure was 95 to 115 °C; with `CCCCON=C(C(=O)OCC)c1csc(N)n1`, 126 to 128 °C; with `COC(=O)[C@H](Cc1ccc([N+](=O)[O-])cc1)NC(=O)c1c(C)cccc1Cl`, 120 to 123 °C. With `Cc1cccc(-c2[nH]c(C(C)C)nc2-c2cccc(-c3ccc(C)[nH]3)c2)n1` the figure was 128 to 130 °C. With `CCOC(=O)c1ncc2[nH]c3cccc(Oc4ccc(Cl)cn4)c3c2c1COC` the figure was 156 to 158 °C.

With `CN1CCCC(OC(=O)Nc2ccc(C(F)(F)F)cc2)C1` (configuration not stated), the melting point lay within 119 to 120 °C. With `Cc1cc(-c2ccc(C(F)(F)F)nc2)nc(-c2cccc(-c3cccc(S(N)(=O)=O)c3)c2)n1` the figure was 220 °C; with `CCn1ncnc1COc1nn2c(-c3c(F)ccc(F)c3F)nncc2c1C(C)(C)C`, 42 °C. As for `CS(=O)(=O)OC(c1ccc(C(O)(C(F)(F)F)C(F)(F)F)cc1)(C(F)(F)F)C(F)(F)F`, the figure is 160 °C. As for `COC(=O)c1cc(C=O)cnc1C(=O)OC`, the figure is 75 to 77 °C; as for `CCCn1c(=O)c2c(N)n(CC(=O)c3cccc(OC)c3)nc2n(Cc2ccccc2)c1=O`, 184 to 185 °C. `C[C@@H](c1ccc(/C=C/c2ccnn2C)cc1)[C@](O)(Cn1cncn1)c1ccc(F)cc1F` registered a melting point of 81 to 83 °C. For `COc1cc(C(=O)NS(=O)(=O)c2ccccc2)cnc1C(=O)O`, the melting point was in the range of 176 to 178 °C. With `Nc1ccc(C2=NNC(=O)CC2)cc1N` the figure was 226 °C; with `O=S(=O)(O)CCCNc1cccc(O)c1`, > 250 °C. As for `CCCCc1ccc(N2CCN(C(=O)Nc3nc(C)c(C)nc3OC)CC2)cc1`, the figure is 121 to 123 °C; as for `CC(Cc1ccc(OCc2cccc(C(N)=O)c2)cc1)NCCC(c1ccccc1)c1ccccc1` (configuration not stated), 188 to 190 °C; as for `N#CC(Cl)Cc1ccc([N+](=O)[O-])cc1` (configuration not stated), 112 °C.

Compound `O=C(Nc1cc(Cl)c(F)cc1-c1ccccc1)c1cccnc1Cl` yielded a melting point of 131 to 136 °C. With `C1=CC2(C3OCCO3)OC1c1ccccc12` (configuration not stated) the figure was 48 to 49 °C. `CC1CC(=O)c2cc([N+](=O)[O-])c(F)cc2O1` (configuration not stated): the melting point lay within 139 to 141 °C. With `CC1=NC(=CC(=CN(C)C)c2ccc(C)cc2[N+](=O)[O-])C(=O)O1` the figure was 200 to 201 °C; with `O=C(NC(Cc1ccccc1)C1CC(Cc2ccccc2)=NO1)c1ccccc1` (configuration not stated), 141 to 142 °C. As for `CCSC(F)(F)C(O)(Cn1cncn1)c1ccc(F)cc1F` (configuration not stated), the melting point lay in the range of 109 to 110 °C. In turn, `Cn1cc(-c2cccc(N3Cc4cc(C(C)(C)C)ccc4C3=O)c2CO)cc(Nc2ccc(N3CCNCC3=O)cn2)c1=O` gave a melting point of 218 to 220 °C.

`Cc1cc(N2CCCC2)c2ccc(I)cc2n1`: the melting point lay in the range of 99 to 102 °C. Turning to `CCOC(OCC)c1ncn(C(c2ccccc2)(c2ccccc2)c2ccccc2)n1`, the melting point fell in the range of 120 to 124 °C. As for `COc1ccc(C=CC(=O)CC(=O)C=Cc2ccc(OC)cc2)cc1`, the figure is 154 to 155 °C; as for `CCOCOC(CCC(C(=O)NC)C(C)C(O)c1ccccc1)c1ccc(F)cc1` (configuration not stated), 91 to 92 °C; as for `CC1(C)CC(O)CC(C)(C)N1CC(O)CO` (configuration not stated), 97 to 99 °C. As for `c1ccc(CNc2ccc3ccccc3c2-c2c(P(c3ccccc3)c3ccccc3)ccc3ccccc23)cc1`, the figure is 70.1 °C; as for `O=C(c1ccccc1)N1CC2C(C1)C2N(C(=O)c1ccccc1)c1ncc2cc(-c3ccccc3Cl)c(=O)n(C3CC3)c2n1` (configuration not stated), 124 to 130 °C. With `CC(C)Oc1ccc(C[C@H](NC(=O)[C@@H]2CCCCN2S(=O)(=O)c2cccc(C(F)(F)F)c2)C(=O)NC2CCOCC2)cc1` the figure was 78.6 °C; with `CN(CCCO)c1ccnc(CSc2nc3ccccc3[nH]2)c1Cl`, 127 to 130 °C; with `CC1(C(=O)CC(=O)c2ccc(S(C)(=O)=O)c(Cl)c2Cl)CC1`, 143 °C.

Compound `CCc1ccc(C(=O)C=CN(C)C)cc1` showed a melting point of 80 to 81 °C. As for `O=C(NC1CCCCC1)c1c(O)c2cscc2[nH]c1=O`, the figure is 244 °C; as for `CC(C)C(Oc1ccccc1)C(=O)NCCO[N+](=O)[O-]` (configuration not stated), 76 to 77 °C.

Regarding `Cc1nc(C(Cl)(Cl)Cl)nc(O)c1Cl`, the melting point lay within 130 to 145 °C. For the compound `COC(=O)c1ccc(Cl)cc1OCC#N`, the melting point is 73 to 76 °C. As for `O=[N+]([O-])c1ccc(SSc2nccc(O)n2)c(C(Cl)(Cl)Cl)c1`, the figure is 174 °C; as for `CCOC(=O)C1=C(C)NC(C=O)=C(C(=O)OCC)C1c1ccccc1[N+](=O)[O-]` (configuration not stated), 101 to 103 °C. With `CN(C)C(=O)c1nc2cnc3ccccc3c2[nH]1` the figure was 284 to 286 °C; with `CN(C)CCNC(=O)c1cccc2cc[nH]c12`, 100 to 102 °C; with `COC(=O)c1cccc(-c2nc(=O)c3ccccc3s2)c1`, 164 °C. As for `CC(C)(C)c1cc(-c2nn(CC(F)(F)C(F)F)c3ncccc23)cc(C(C)(C)C)c1O`, the figure is 105 to 106 °C. For the compound `CCc1nc2c(C)cc(C)nc2n1Cc1ccc(C(CCNS(=O)(=O)C(F)(F)F)c2ccccc2)cc1` (configuration not stated), the melting point lay in the range of 64 to 69 °C. With `CN(C)C(=O)C(c1ccccc1)(c1ccccc1)C1CCNC1` (configuration not stated) the figure was 159 to 160 °C; with `CC1(C)C(=O)Oc2ccc3cc(C(N)=O)c(Cn4cncn4)cc3c21`, 231 to 232 °C; with `CSC1NC(=O)N(Cc2ccccc2)C(=O)N1N=C(C)C` (configuration not stated), 148 to 150 °C. As for `C=CCCC(C#N)(C#N)Cc1ccc(OC(F)(F)Br)cc1`, the figure is 50.2 °C; as for `O=C(O)CCCCn1c(=O)c2cc(O)ccc2n(CCCCN2CCC(OC(c3ccccc3)c3ccccc3)CC2)c1=O`, 234 to 236 °C. `COc1ccc(-c2ccc(COc3cccc4cc(NS(=O)(=O)C(F)(F)F)ccc34)c(F)c2)cc1` displayed a melting point of 108 to 111 °C. As for `NC(=O)c1sc(-n2cnc3cnccc32)cc1OCc1ccccc1C(F)(F)F`, the figure is 226 to 227 °C; as for `CSCC[C@@H](NC(=O)OC(C)(C)C)C(=O)NCC(=O)O`, 124 to 126 °C; as for `COc1ccc(CNCCCOc2ccc(NC(=O)c3cccc4c(=O)c5ccccc5[nH]c34)cc2)cc1OC`, 138 to 139 °C.

`Nc1nc(C2CCN(C(=O)c3ccccc3)CC2)c2cc(Cl)ccc2n1` yielded a melting point of 155 to 158 °C. Compound `O=C(c1ccccc1)N1CCN(c2cncc(Cl)n2)CC1` showed a melting point of 104 to 105 °C. As for `COC(=O)c1cc(C)cc(C=O)c1`, the figure is 71 to 73 °C; as for `CCOC(=O)Nn1cccc1`, 60 to 61 °C; as for `CCOC(=O)C1=C(C=O)Nc2ccnc(OC(C)C)c2C1c1ccccc1C(F)(F)F` (configuration not stated), 108 to 109 °C. With `O=C1CCC(c2ccc3nc(-c4ccncc4)[nH]c3c2)=NN1` the figure was > 320 °C; with `COc1nc(Br)nc(OC)n1`, 118 to 120 °C.

`COc1nc(C(F)(F)F)c(F)c(=O)n1-c1cc(OC(C)C)c(Cl)cc1F` showed a melting point of 144 to 146 °C.

The compound `CCOC(=O)c1nnc2n1-c1ccccc1C(c1ccccc1)=NC2` showed a melting point of 205 to 206 °C. Regarding `CC(C)(C)C(=O)C(Cl)C(=O)Nc1cc(OC(=O)c2cc(C(C)(C)C)c(O)c(C(C)(C)C)c2)ccc1Cl` (configuration not stated), the melting point lay within 185 to 187 °C.

On to `CCOP(=O)(CC(=O)NNc1nc2ccc(C(F)(F)F)cc2n(OCc2ccccc2)c1=O)OCC`, for which the melting point fell in the range of 163 to 166 °C. With `N#Cc1c(OCCOc2ccccc2)cccc1[N+](=O)[O-]` the figure was 129 to 138 °C; with `CC(=O)NC[C@H]1CN(c2ccc(-c3nsc(C(N)=O)n3)c(F)c2)C(=O)O1`, 238 to 240 °C. As for `CC1(C)OCC(COc2cc(O)nc(N)n2)O1` (configuration not stated), the figure is 258 °C; as for `Cc1ccc2[nH]c(=O)n3c(=O)[nH]nc3c2c1C`, > 350 °C; as for `CCCc1[nH]c2cc(C(N)=O)ccc2c1C(=O)C=C(C)C`, 179 to 181 °C.

As usually defined, the melting point is the temperature of the solid-liquid transition.
